Laboratory results as given in publication PMC6349845, “Overcoming NADPH product inhibition improves D-sorbitol conversion to L-sorbose” (Scientific Reports, 2019).

Key:
[1] = molecular target: T1, GoSLDH (Gluconobacter oxydans, UniProt Q9KWR5); assay: isothermal titration calorimetry; type: binding
T1 construct: codon-optimised synthetic gene in pET28a, expressed in E. coli BL21-CodonPlus(DE3)-RIL, purified (His-tag vector)
T1 sequence (Q9KWR5 1-485): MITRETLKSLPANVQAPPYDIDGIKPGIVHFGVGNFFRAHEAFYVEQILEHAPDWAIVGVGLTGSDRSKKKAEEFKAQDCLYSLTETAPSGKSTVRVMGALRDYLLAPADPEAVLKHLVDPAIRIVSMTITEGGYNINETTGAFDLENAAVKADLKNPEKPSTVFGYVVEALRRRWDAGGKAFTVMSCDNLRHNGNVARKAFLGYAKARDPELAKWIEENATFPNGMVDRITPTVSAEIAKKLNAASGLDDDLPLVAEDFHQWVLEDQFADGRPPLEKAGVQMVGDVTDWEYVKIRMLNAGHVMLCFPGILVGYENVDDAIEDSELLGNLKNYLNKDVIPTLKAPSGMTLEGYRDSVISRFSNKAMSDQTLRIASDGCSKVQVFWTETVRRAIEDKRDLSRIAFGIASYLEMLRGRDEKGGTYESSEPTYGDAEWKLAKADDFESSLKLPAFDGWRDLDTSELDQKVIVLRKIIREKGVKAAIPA

[2] = molecular target: T1, GoSLDH; assay: steady-state inhibition kinetics, double-reciprocal plots; type: biochemical

Row | Kd [1] | Ki [2] | SMILES
1 | 67.1 µM | 100 µM | NC(=O)C1=CN([C@@H]2O[C@H](COP(=O)(O)OP(=O)(O)OC[C@H]3O[C@@H](n4cnc5c(N)ncnc54)[C@H](OP(=O)(O)O)[C@@H]3O)[C@@H](O)[C@H]2O)C=CC1 [NADPH]
2 | 89.3 µM | – | NC(=O)c1ccc[n+]([C@@H]2O[C@H](COP(=O)(O)OP(=O)(O)OC[C@H]3O[C@@H](n4cnc5c(N)ncnc54)[C@H](OP(=O)(O)O)[C@@H]3O)[C@@H](O)[C@H]2O)c1 [NADP^+]
